This test has as its system MV-4-11 cells. The experiment in a line: Gene expression microarray analysis (Affymetrix PrimeView) and GSEA. It is filed as cell-based, human. Also noted: RFU PODN (11730768_x_at) / Fold change /veh PODN (11730768_x_at) / RFU LINC00158 (11744669_a_at) / Fold change /veh LINC00158 (11744669_a_at) / RFU DUSP10 (11751237_a_at) / Fold change /veh DUSP10 (11751237_a_at) / RFU ID3 (11757404_x_at) / Fold change /veh ID3 (11757404_x_at) / RFU PLEKHG5 (11737974_s_at) / Fold change /veh PLEKHG5 (11737974_s_at) / RFU LRRC4B (11730491_at) / Fold change /veh LRRC4B (11730491_at) / RFU GIMAP4 (11747438_a_at) / Fold change /veh GIMAP4 (11747438_a_at) / RFU KRT8 (11758183_x_at) / Fold change /veh KRT8 (11758183_x_at) / RFU CNN1 (11734310_a_at) / Fold change /veh CNN1 (11734310_a_at) / RFU VPS37D (11726825_at) / Fold change /veh VPS37D (11726825_at) / RFU C10orf10 (11716522_x_at) / Fold change /veh C10orf10 (11716522_x_at) / RFU KIR2DL2 /// KIR2DL4 /// KIR2DL5A /// KIR2DL5B /// KIR2DS1 /// KIR2DS2 /// KIR2DS3 /// KIR2DS4 /// KIR3DL3 /// KIR3DL3 /// KIR3DS1 (11738374_at) / Fold change /veh KIR2DL2 /// KIR2DL4 /// KIR2DL5A /// KIR2DL5B /// KIR2DS1 /// KIR2DS2 /// KIR2DS3 /// KIR2DS4 /// KIR3DL3 /// KIR3DL3 /// KIR3DS1 (11738374_at) / RFU C1QL1 (11718748_at) / Fold change /veh C1QL1 (11718748_at) / RFU TMPRSS4 (11747572_a_at) / Fold change /veh TMPRSS4 (11747572_a_at) / RFU HAMP (11756126_x_at) / Fold change /veh HAMP (11756126_x_at) / RFU RNFT2 (11725882_a_at) / Fold change /veh RNFT2 (11725882_a_at) / RFU NR4A2 (11747474_a_at) / Fold change /veh NR4A2 (11747474_a_at) / RFU ABCC12 (11746883_a_at) / Fold change /veh ABCC12 (11746883_a_at) / RFU TMEM136 (11760407_x_at) / Fold change /veh TMEM136 (11760407_x_at) / RFU CLDN22 /// WWC2 (11732394_at) / Fold change /veh CLDN22 /// WWC2 (11732394_at) / RFU HLA-DPB1 (11760878_x_at) / Fold change /veh HLA-DPB1 (11760878_x_at) / RFU SPINT1 (11716480_a_at) / Fold change /veh SPINT1 (11716480_a_at) / RFU GAP43 (11754022_s_at) / Fold change /veh GAP43 (11754022_s_at) / RFU A4GNT (11735810_at) / Fold change /veh A4GNT (11735810_at) / RFU PRB3 (11715151_x_at) / Fold change /veh PRB3 (11715151_x_at) / RFU TUBB4B (11761932_at) / Fold change /veh TUBB4B (11761932_at) / RFU CAPN14 (11732068_a_at) / Fold change /veh CAPN14 (11732068_a_at) / RFU TMCC2 (11721928_a_at) / Fold change /veh TMCC2 (11721928_a_at) / RFU IRGQ (11745062_a_at) / Fold change /veh IRGQ (11745062_a_at) / RFU FAM174B (11720279_a_at) / Fold change /veh FAM174B (11720279_a_at) / RFU TMPRSS4 (11748680_a_at) / Fold change /veh TMPRSS4 (11748680_a_at) / RFU FAM212B (11763350_a_at) / Fold change /veh FAM212B (11763350_a_at) / RFU PLEKHG5 (11743358_a_at) / Fold change /veh PLEKHG5 (11743358_a_at) / RFU ZSCAN30 (11745921_a_at) / Fold change /veh ZSCAN30 (11745921_a_at) / RFU CMKLR1 (11741424_a_at) / Fold change /veh CMKLR1 (11741424_a_at) / RFU LOC101060620 /// MAPK8IP1 (11723275_at) / Fold change /veh LOC101060620 /// MAPK8IP1 (11723275_at) / RFU SPTSSB (11747773_x_at) / Fold change /veh SPTSSB (11747773_x_at) / RFU PRSS12 (11739890_at) / Fold change /veh PRSS12 (11739890_at) / RFU BIN1 (11741810_x_at) / Fold change /veh BIN1 (11741810_x_at) / RFU WNT11 (11732464_a_at) / Fold change /veh WNT11 (11732464_a_at) / RFU C10orf10 (11716521_a_at) / Fold change /veh C10orf10 (11716521_a_at) / RFU C5orf56 (11738089_at) / Fold change /veh C5orf56 (11738089_at) / RFU CYB561 (11721691_x_at) / Fold change /veh CYB561 (11721691_x_at) / RFU ANKRD19P (11752326_a_at) / Fold change /veh ANKRD19P (11752326_a_at) / RFU OR2T12 /// OR2T33 /// OR2T8 (11738714_s_at) / Fold change /veh OR2T12 /// OR2T33 /// OR2T8 (11738714_s_at) / RFU VCAN (11748164_a_at) / Fold change /veh VCAN (11748164_a_at) / RFU JSRP1 (11732532_at) / Fold change /veh JSRP1 (11732532_at) / RFU KRTAP10-11 (11738290_x_at) / Fold change /veh KRTAP10-11 (11738290_x_at) / RFU MYO3A (11730013_a_at) / Fold change /veh MYO3A (11730013_a_at) / RFU EBF3 (11725865_a_at) / Fold change /veh EBF3 (11725865_a_at) / RFU CAMK2N1 (11719241_x_at) / Fold change /veh CAMK2N1 (11719241_x_at) / RFU C5orf56 (11738088_a_at) / Fold change /veh C5orf56 (11738088_a_at) / RFU OLFML3 (11715873_a_at) / Fold change /veh OLFML3 (11715873_a_at) / RFU LOC100653217 /// NTM (11731650_a_at) / Fold change /veh LOC100653217 /// NTM (11731650_a_at) / RFU MAPK11 (11762145_a_at) / Fold change /veh MAPK11 (11762145_a_at) / RFU FIZ1 (11724087_x_at) / Fold change /veh FIZ1 (11724087_x_at) / RFU OASL (11726364_x_at) / Fold change /veh OASL (11726364_x_at) / RFU SOX15 (11748057_x_at) / Fold change /veh SOX15 (11748057_x_at) / RFU CD79A (11719716_a_at) / Fold change /veh CD79A (11719716_a_at) / RFU HIST1H1D (11736915_at) / Fold change /veh HIST1H1D (11736915_at) / RFU CASKIN2 (11723855_a_at) / Fold change /veh CASKIN2 (11723855_a_at) / RFU LOC730098 (11760151_x_at) / Fold change /veh LOC730098 (11760151_x_at) / RFU OR4N2 (11742367_at) / Fold change /veh OR4N2 (11742367_at) / RFU PRRT2 (11749266_a_at) / Fold change /veh PRRT2 (11749266_a_at) / RFU SNX32 (11753110_a_at) / Fold change /veh SNX32 (11753110_a_at) / RFU CDHR5 (11726645_a_at) / Fold change /veh CDHR5 (11726645_a_at) / RFU RCAN1 (11760418_a_at) / Fold change /veh RCAN1 (11760418_a_at) / RFU FAM167A (11723789_a_at) / Fold change /veh FAM167A (11723789_a_at) / RFU FAM26E (11764081_at) / Fold change /veh FAM26E (11764081_at) / RFU ISYNA1 (11749810_s_at) / Fold change /veh ISYNA1 (11749810_s_at) / RFU ACY1 (11761880_at) / Fold change /veh ACY1 (11761880_at) / RFU 11764098_at / Fold change /veh 11764098_at / RFU SAMD14 (11745864_x_at) / Fold change /veh SAMD14 (11745864_x_at) / RFU NPB (11741838_a_at) / Fold change /veh NPB (11741838_a_at) / RFU TMPRSS6 (11731388_a_at) / Fold change /veh TMPRSS6 (11731388_a_at) / RFU KRTAP10-2 (11738614_at) / Fold change /veh KRTAP10-2 (11738614_at) / RFU ARHGAP8 /// PRR5-ARHGAP8 (11727945_x_at) / Fold change /veh ARHGAP8 /// PRR5-ARHGAP8 (11727945_x_at) / RFU KRTAP5-7 /// NADSYN1 (11734609_at) / Fold change /veh KRTAP5-7 /// NADSYN1 (11734609_at) / RFU RASL12 (11751679_a_at) / Fold change /veh RASL12 (11751679_a_at) / RFU CDKN2B (11736163_a_at) / Fold change /veh CDKN2B (11736163_a_at) / RFU PRF1 (11729649_at) / Fold change /veh PRF1 (11729649_at) / RFU, ZNF638 /// ZNF638-IT1 / Fold change vs veh, ZNF638 /// ZNF638-IT1 / RFU, PANK3 / Fold change vs veh, PANK3 / RFU, SH3YL1 / Fold change vs veh, SH3YL1 / RFU, ZEB2 / Fold change vs veh, ZEB2 / RFU, NRIP1 / Fold change vs veh, NRIP1 / RFU, PTTG1IP / Fold change vs veh, PTTG1IP / RFU, CAPN2 / Fold change vs veh, CAPN2 / RFU, MED14 / Fold change vs veh, MED14 / RFU, SNORA58 / Fold change vs veh, SNORA58 / RFU, C1orf63 / Fold change vs veh, C1orf63 / RFU, LRRFIP1 / Fold change vs veh, LRRFIP1 / RFU, NDUFAF7 / Fold change vs veh, NDUFAF7 / RFU, SLC12A2 / Fold change vs veh, SLC12A2 / RFU, IBTK / Fold change vs veh, IBTK / RFU, ESF1 / Fold change vs veh, ESF1 / Fold change vs veh, TMEM50B / RFU, TAOK1 / Fold change vs veh, TAOK1 / RFU, ACBD3 / Fold change vs veh, ACBD3 / RFU, TMA16 / Fold change vs veh, TMA16 / RFU, RWDD3 / Fold change vs veh, RWDD3 / RFU, BCAT1 / Fold change vs veh, BCAT1 / RFU, EDEM3 / Fold change vs veh, EDEM3 / RFU, TMEM33 / Fold change vs veh, TMEM33 / RFU, WDR75 / Fold change vs veh, WDR75 / RFU, AHCTF1 / Fold change vs veh, AHCTF1 / RFU, TFRC / Fold change vs veh, TFRC / RFU, ZDHHC17 / Fold change vs veh, ZDHHC17 / RFU, NOM1 / Fold change vs veh, NOM1 / RFU, ARL8B / Fold change vs veh, ARL8B / RFU, ZBTB11 / Fold change vs veh, ZBTB11 / RFU, TAMM41 / Fold change vs veh, TAMM41 / RFU, KIAA1704 /// LOC100996395 / Fold change vs veh, KIAA1704 /// LOC100996395 / RFU, ING1 / Fold change vs veh, ING1 / RFU, TRMT61B / Fold change vs veh, TRMT61B / RFU, FUBP3 / Fold change vs veh, FUBP3 / RFU, TP53 / Fold change vs veh, TP53 / RFU, TNKS2 / Fold change vs veh, TNKS2 / RFU, ZFP14 / Fold change vs veh, ZFP14 / RFU, ACTR2 / Fold change vs veh, ACTR2 / RFU, PPP3R1 / Fold change vs veh, PPP3R1 / RFU, PIK3R1 / Fold change vs veh, PIK3R1 / RFU, HNRNPA1 / Fold change vs veh, HNRNPA1 / RFU, RNF170 / Fold change vs veh, RNF170 / RFU, ZNF28 / Fold change vs veh, ZNF28 / RFU, RNGTT / Fold change vs veh, RNGTT / RFU, OGT / Fold change vs veh, OGT / RFU, BRD1 / Fold change vs veh, BRD1 / RFU, MARS / Fold change vs veh, MARS / RFU, ZNF655 / Fold change vs veh, ZNF655 / RFU, FAHD1 / Fold change vs veh, FAHD1 / RFU, BDP1 / Fold change vs veh, BDP1 / RFU, LRRCC1 / Fold change vs veh, LRRCC1 / RFU, ARID1A / Fold change vs veh, ARID1A / RFU, ZNF146 / Fold change vs veh, ZNF146 / RFU, ZNF330 / Fold change vs veh, ZNF330 / RFU, GPN3 / Fold change vs veh, GPN3 / RFU, C9orf123 / Fold change vs veh, C9orf123 / RFU, N4BP2L2 / Fold change vs veh, N4BP2L2 / RFU, ARFIP1 / Fold change vs veh, ARFIP1 / RFU, FAM179B / Fold change vs veh, FAM179B / RFU, BCL10 / Fold change vs veh, BCL10 / RFU, UHRF1BP1L / Fold change vs veh, UHRF1BP1L / RFU, BET1 / Fold change vs veh, BET1 / RFU, CNOT2 / Fold change vs veh, CNOT2 / RFU, ZNF268 / Fold change vs veh, ZNF268 / Fold change vs veh, ZNF507 / RFU, DGCR2 / Fold change vs veh, DGCR2 / RFU, WDSUB1 / Fold change vs veh, WDSUB1 / Fold change vs veh, HSP90B1 /// MIR3652 / RFU, ADSS / Fold change vs veh, ADSS / RFU, GK / Fold change vs veh, GK / RFU, ZNF148 / Fold change vs veh, ZNF148 / RFU, TAF9 / Fold change vs veh, TAF9 / RFU, SLC1A5 / Fold change vs veh, SLC1A5 / RFU, SLMO2 / Fold change vs veh, SLMO2 / RFU, ABCC4 / Fold change vs veh, ABCC4 / RFU, LOC101060439 /// RAP1B / Fold change vs veh, LOC101060439 /// RAP1B / RFU, RFX7 / Fold change vs veh, RFX7 / RFU, GTPBP10 / Fold change vs veh, GTPBP10 / RFU, CNEP1R1 / Fold change vs veh, CNEP1R1 / RFU, BIVM-ERCC5 /// ERCC5 / Fold change vs veh, BIVM-ERCC5 /// ERCC5 / RFU, ILF3 / Fold change vs veh, ILF3 / RFU 11762660_at / Fold change /veh 11762660_at / RFU VCAN (11757783_s_at) / Fold change /veh VCAN (11757783_s_at) / RFU DDX43 (11728927_at) / Fold change /veh DDX43 (11728927_at) / RFU KRT8 (11758188_x_at) / Fold change /veh KRT8 (11758188_x_at) / RFU NKD1 (11759106_at) / Fold change /veh NKD1 (11759106_at) / RFU SRD5A1 (11742802_a_at) / Fold change /veh SRD5A1 (11742802_a_at) / RFU TPSAB1 /// TPSB2 (11721975_s_at) / Fold change /veh TPSAB1 /// TPSB2 (11721975_s_at) / RFU GSTM3 (11746129_a_at) / Fold change /veh GSTM3 (11746129_a_at) / RFU IL23R (11737362_x_at) / Fold change /veh IL23R (11737362_x_at) / RFU TMEM51 (11727254_a_at) / Fold change /veh TMEM51 (11727254_a_at) / RFU PIWIL2 (11732686_x_at) / Fold change /veh PIWIL2 (11732686_x_at) / RFU ORM1 (11744905_x_at) / Fold change /veh ORM1 (11744905_x_at) / RFU CCDC152 (11743942_at) / Fold change /veh CCDC152 (11743942_at) / RFU ECM1 (11717891_a_at) / Fold change /veh ECM1 (11717891_a_at) / RFU IL23R (11748794_a_at) / Fold change /veh IL23R (11748794_a_at) / RFU TNFAIP8L3 (11732012_x_at) / Fold change /veh TNFAIP8L3 (11732012_x_at) / RFU MBOAT4 (11741988_at) / Fold change /veh MBOAT4 (11741988_at) / RFU 11764193_at / Fold change /veh 11764193_at / RFU TMEM53 (11763286_at) / Fold change /veh TMEM53 (11763286_at) / RFU MAGEB2 (11727129_at) / Fold change /veh MAGEB2 (11727129_at) / RFU TMEM200A (11744735_a_at) / Fold change /veh TMEM200A (11744735_a_at) / RFU CCDC152 (11751479_a_at) / Fold change /veh CCDC152 (11751479_a_at) / RFU FAM211A (11726209_a_at) / Fold change /veh FAM211A (11726209_a_at) / RFU RGS16 (11746705_a_at) / Fold change /veh RGS16 (11746705_a_at) / RFU VCAN (11755009_s_at) / Fold change /veh VCAN (11755009_s_at) / RFU RHOB (11743442_s_at) / Fold change /veh RHOB (11743442_s_at) / RFU RGS16 (11720943_a_at) / Fold change /veh RGS16 (11720943_a_at) / RFU RGS16 (11720944_at) / Fold change /veh RGS16 (11720944_at) / RFU, VPS4B / Fold change vs veh, VPS4B / RFU, CREB1 / Fold change vs veh, CREB1 / RFU, DNAJC13 / Fold change vs veh, DNAJC13 / RFU, GNAQ / Fold change vs veh, GNAQ / RFU, CDK5R1 / Fold change vs veh, CDK5R1 / RFU, ZRANB3 / Fold change vs veh, ZRANB3 / RFU, CUL4A / Fold change vs veh, CUL4A / RFU, CCNY / Fold change vs veh, CCNY / RFU, UFL1 / Fold change vs veh, UFL1 / RFU, COG3 / Fold change vs veh, COG3 / RFU, DIAPH2 / Fold change vs veh, DIAPH2 / RFU, SKA2 / Fold change vs veh, SKA2 / RFU, AFF3 / Fold change vs veh, AFF3 / RFU, LMF1 / Fold change vs veh, LMF1 / RFU, IPO11 / Fold change vs veh, IPO11 / RFU, DFFB / Fold change vs veh, DFFB / RFU, FOXP1 / Fold change vs veh, FOXP1 / RFU, CARD8 / Fold change vs veh, CARD8 / RFU, STRN3 / Fold change vs veh, STRN3 / RFU, ADK / Fold change vs veh, ADK / RFU, RASSF2 / Fold change vs veh, RASSF2 / RFU, WIPF1 / Fold change vs veh, WIPF1 / RFU, LARP1B / Fold change vs veh, LARP1B / RFU, RASA1 / Fold change vs veh, RASA1 / RFU, RB1 / Fold change vs veh, RB1 / RFU, PPFIA1 / Fold change vs veh, PPFIA1 / RFU, MAT2A / Fold change vs veh, MAT2A / RFU, CCT5 / Fold change vs veh, CCT5 / RFU, WDR92 / Fold change vs veh, WDR92 / RFU, CUX1 / Fold change vs veh, CUX1 / RFU, TTC7A / Fold change vs veh, TTC7A / RFU, TMEM135 / Fold change vs veh, TMEM135 / RFU, DEPTOR / Fold change vs veh, DEPTOR / RFU, CPM / Fold change vs veh, CPM / RFU, DNAJB6 / Fold change vs veh, DNAJB6 / RFU, CACNA2D3 / Fold change vs veh, CACNA2D3 / RFU, DTX4 / Fold change vs veh, DTX4 / RFU, TFCP2 / Fold change vs veh, TFCP2 / RFU, GMCL1 /// GMCL1P1 / Fold change vs veh, GMCL1 /// GMCL1P1 / RFU, AEBP2 / Fold change vs veh, AEBP2 / RFU, SNHG1 /// SNORD22 /// SNORD25 /// SNORD26 /// SNORD27 /// SNORD28 /// SNORD29 /// SNORD31 / Fold change vs veh, SNHG1 /// SNORD22 /// SNORD25 /// SNORD26 /// SNORD27 /// SNORD28 /// SNORD29 /// SNORD31 / Fold change (Aza/veh), C12orf56 (ProbeSet 11735607_a_at) / Fold change (ACY-1035/veh), C12orf56 (ProbeSet 11735607_a_at) / Fold change (Aza/veh), FGFR1OP (ProbeSet 11751329_s_at) / Fold change (ACY-1035/veh), FGFR1OP (ProbeSet 11751329_s_at) / Fold change (Aza/veh), VPS36 (ProbeSet 11739960_a_at) / Fold change (ACY-1035/veh), VPS36 (ProbeSet 11739960_a_at) / RFU SYPL1 (11715823_x_at) / Fold change /veh SYPL1 (11715823_x_at) / RFU IGFBP7 (11715501_s_at) / Fold change /veh IGFBP7 (11715501_s_at) / RFU REEP3 (11722064_at) / Fold change /veh REEP3 (11722064_at) / RFU IGLL1 (11728026_x_at) / Fold change /veh IGLL1 (11728026_x_at): dose or concentration left out as unconfirmed. The conditions noted are these: MV-4-11 cells, 48 hours.

Take `Nc1ccc(-c2cccs2)cc1NC(=O)c1ccc2c(c1)cc(C1CC1)n2CCN1CCOCC1` [ACY-1035]: the “RFU PLEKHG5 (11737974_s_at)” value was determined as 47.67 RFU.

For the origin of these results see publication PMC5218480 (PLoS ONE, 2017).
